Experimental data: publication PMC8920304, “Potent Inhibition of Human Cytochrome P450 3A4 by Biflavone Components from Ginkgo Biloba and Selaginella Tamariscina” (Frontiers in Pharmacology, 2022)

Tests used:
CYP3A4 [1] = target: T1, CYP3A4 (Homo sapiens, UniProt P08684); experiment: Inhibition kinetic characterization with NEN 4-hydroxylation in HLM; format: in vitro ADME; details: for Type of inhibition: NEN 4-hydroxylation; for Ki: NEN 15-150 µM, 30 min; for ɑ (degree to which inhibitor binding influences enzyme-substrate binding): mixed-inhibition model
T1 construct: The primary incubation mixture contains HLM, potassium phosphate buffer; from tissue; host or cells: human liver microsomes (HLM)
T1 sequence (P08684 whole entry): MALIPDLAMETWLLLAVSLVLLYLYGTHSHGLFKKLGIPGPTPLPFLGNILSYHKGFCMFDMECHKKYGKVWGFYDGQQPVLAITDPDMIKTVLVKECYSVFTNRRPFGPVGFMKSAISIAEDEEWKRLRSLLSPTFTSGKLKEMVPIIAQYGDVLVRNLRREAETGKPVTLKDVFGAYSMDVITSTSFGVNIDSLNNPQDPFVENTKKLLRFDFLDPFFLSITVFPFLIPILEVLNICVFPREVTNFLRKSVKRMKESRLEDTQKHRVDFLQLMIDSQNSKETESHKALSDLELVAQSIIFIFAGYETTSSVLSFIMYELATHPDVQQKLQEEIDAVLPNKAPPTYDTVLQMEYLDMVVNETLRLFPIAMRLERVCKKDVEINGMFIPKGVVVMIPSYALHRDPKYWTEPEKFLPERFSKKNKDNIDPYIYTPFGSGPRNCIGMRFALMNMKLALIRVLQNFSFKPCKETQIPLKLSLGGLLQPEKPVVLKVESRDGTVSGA
Protocol: Varying concentrations of DGK, GK, IGK, and AMF incubated for 30 min with varying concentrations of NEN (15–150 µM). The high-throughput screening assay was performed, and the inhibition curve was fitted with GraphPad Prism (Version 8.0). The inhibition type was confirmed based on the R square of the following four equations and the Dixon and Lineweaver–Burk plots. The inhibition constant (K i) values were determined using the equations for competitive inhibition (Eq. 1), noncompetitive inhibition (Eq. 2), uncompetitive inhibition (Eq. 3), and mixed inhibition (Eq. 4). v=VmaxS/Km(1+I/Ki)+S (1) v=VmaxS/(Km+S)(1+I/Ki) (2) v=VmaxS/S(1+I/Ki)+Km (3) v=VmaxS/Km(1+I/Ki)+S(1+I/αKi) (4)

CYP3A4 [2] = target: T1, CYP3A4; experiment: Inhibition of CYP3A4-mediated oxidation of clinical drugs (tamoxifen, gefitinib, ticagrelor) in HLM, LC-MS/MS; format: in vitro ADME; details: 30 min, ± SD
Protocol: Varying concentrations of DGK, GK, IGK, and AMF incubated for 30 min with gefitinib (10 μM), tamoxifen (20 μM), ticagrelor (30 μM), respectively ([Wang et al., 2020]). The ExionLC AD HPLC system consisted of an autosampler, a quaternary delivery system and a degasser. The chromatograph was equipped with a Luna Omega PS C18 (2.1 × 100 mm, 3 μm) analytical column, and the mobile phase consisted of 0.1% formic acid aqueous solution (A) and ACN (B), and were conducted with a 0.30 ml/min flow rate as follow for the gradient program: 0–1.5 min (10–10% B), 1.5–3.0 min (10–45% B), 3.0–5.0 min (45–90% B). An AB MDS Sciex QTRAP 5500 Mass Spectrometer equipped with an ESI source was used to analyze the target substances. The positive mode was used with N-demethylated tamoxifen (358.0→58.0) and defluorinated gefitinib (445.0→128.0). The relative parameters were set as follows: ion spray voltage, 5500 V; temperature, 550°C; curtain gas (CUR) flow, […]; gas1 and gas2 (nitrogen), 45 and 55 psi. The negative mode was used with dehydroxyethoxylated ticagrelor (477.2→361.1). The relative parameters were set as follows: ion spray voltage, -4500 V; temperature, 550°C; curtain gas flow, […]; gas1 and gas2, 50 and 50 psi. For other parameters, please refer to Supplementary Table S1 in the supplementary data.

CYP3A4 [3] = target: T1, CYP3A4; experiment: Inhibition of NEN 4-hydroxylation in human liver microsomes (fluorescence high-throughput screening); format: in vitro ADME; details: HLM, NEN probe, mean ± S.D. (n = 3); read-out: IC50 against CYP3A4 (NEN 4-hydroxylation)
Protocol: The primary incubation mixture contains HLM, potassium phosphate buffer (pH 7.4, 100 mM), G-6-P (10 mM), G-6-P dehydrogenase (1 U/ml), MgCl2 (4 mM), NEN (50 µM), extracts of herbal medicine (20 µg/ml), or components. The incubation duration and HLM protein concentrations were 30 min and 0.05 mg/ml, respectively. The reaction was initiated by the addition of NADP^+ and terminated by the addition of 100 µL ice-cold acetonitrile (ACN). NEN 4-hydroxylation were utilized as the probe reaction for CYP3A4, and fluorescence image of 96-well microplates were measured by a fluorescent image analyzer (GE Amersham Typhoon, Sweden) under the excitation wavelength of 488 nm (E m: 570 ± 15 nm). The formation of NEHN was evaluated by the quantitative analysis of fluorescence signal for individual wells of microplates using the equipment supporting software. The percentage residual activity was calculated from percentage relative value of NEHN formation rate.

CYP3A4 [4] = target: T1, CYP3A4; set-up: method as in Ning et al., 2019; details: HLM; ref Ning et al., 2019; cited from earlier work
[5] = gefitinib 10 μM, defluorination, read-out: IC50 toward gefitinib
[6] = tamoxifen 20 μM, N-demethylation, read-out: IC50 toward tamoxifen
[7] = ticagrelor 30 μM, dehydroxyethoxylation, read-out: IC50 toward ticagrelor

SMILES | Type of inhibition (CYP3A4 [1]) | Ki (CYP3A4 [1]) [nM] | ɑ (degree to which inhibitor binding influences enzyme-substrate binding) (CYP3A4 [1]) | IC50 (CYP3A4 [2]; [5]) [nM] | IC50 (CYP3A4 [2]; [6]) [nM] | IC50 (CYP3A4 [2]; [7]) [nM] | IC50 (CYP3A4 [3]) [nM] | Inhibition of C4-hydroxylation of NEN in human liver microsomes (in words) (CYP3A4 [4])
O=c1cc(-c2ccc(O)c(-c3c(O)cc(O)c4c(=O)cc(-c5ccc(O)cc5)oc34)c2)oc2cc(O)cc(O)c12 [AMF, Amentoflavone] | mixed reversible inhibition | 101 ± 30 | 5.55 | 5200 ± 527 | 2720 ± 93 | 2920 ± 47 | 186 ± 4 | 
Cc1ccc(-c2c(-c3nn(C)c4ncnc(N5CC[C@H](N6CCCCC6)C5)c34)cnn2C)cc1 [CYP3cide] |  |  |  |  |  |  |  | strongly inhibited
COc1ccc(-c2cc(=O)c3c(O)cc(O)cc3o2)cc1-c1c(O)cc(O)c2c(=O)cc(-c3ccc(O)cc3)oc12 [DGK, bilobetin] | mixed reversible inhibition | 70 ± 18 | 2.98 | 1720 ± 1 | 1020 ± 88 | 3500 ± 34 | 162 ± 22 | 
COc1cc(O)c2c(=O)cc(-c3ccc(OC)c(-c4c(O)cc(O)c5c(=O)cc(-c6ccc(O)cc6)oc45)c3)oc2c1 [GK, ginkgetin] | mixed reversible inhibition | 34 ± 7 | 4.56 | 869 ± 1 | 478 ± 3 | 1610 ± 39 | 106 ± 4 | 
COc1ccc(-c2cc(=O)c3c(O)cc(O)c(-c4cc(-c5cc(=O)c6c(O)cc(O)cc6o5)ccc4OC)c3o2)cc1 [IGK, isoginkgetin] | mixed reversible inhibition | 278 ± 87 | 2.79 | 13100 ± 415 | 4660 ± 236 | 10200 ± 382 | 982 ± 6 | 
